Read-outs that look alike come from different tables or passages of the source.
Tests used:
[1] = test system: patients with treatment resistant or non-remitted GAD
Source text: The study population was limited to GAD patients who had not remitted following at least 8 weeks of therapeutic doses of conventional therapy. Conventional therapy includes treatment with one of the following: citalopram, escitalopram, paroxetine, paroxetine CR, venlafaxine XR, sertraline, mirtazapine, fluoxetine, fluvoxamine, or no medication at all. Each patient provided informed consent and was observed on an outpatient basis.
The study population was comprised of patients between the ages of 22 and 61. Forty-eight percent of the study population was male and fifty-two percent was female. […] Patients with other psychiatric disorders, subjective suicidal tendencies, a Montgomery-Asberg Depression Rating Scale (MADRS) score >19, or serious medical conditions were excluded from the study. In addition, pregnant or lactating women and those who took medications prohibited by the study design (e.g., psychoactive substances and oral antipsychotics) within 2 weeks of the original screening were also excluded.
The mean change from baseline to Week 12 in HAM-A total scores was the primary endpoint. […] These additional efficacy assessments were all measured from baseline to Week 12.

[2] = test system: patients with refractory depression (RD); test: Example 29: Cognitive Behavior Therapy (CBT) plus quetiapine or placebo
[3] = test system: elderly patients with MDD and CV damage
[4] = test system: patients with GAD; conditions: hypothesis to be tested
[5] = test system: patients with treatment resistant major depression; test: Example 24: augmentation of antidepressant therapy, quetiapine versus lithium, 56 days
Procedure: The study compared tolerability and efficacy. […] Lithium was initiated at 600 mg/day, and maintained over Week 1 and 2 and subsequently adjusted to attain a level of 0.8-1.2 mmol/L. Lithium levels were taken weekly.
A total of 20 patients were randomized to 1 of the 2 treatment groups. The study population included men and women aged 18-65 years, with a diagnosis of major depression according to DSM-IV, Hamilton Depression Rating Scale (HAM-D)≧20 and a Clinical Global […] (CGI) score ≧4.
Patients were evaluated at baseline and then on days 7, 14, 28, 42, and 56 using the HAM-D, Montgomery-Asberg […] (MADRS), SAS, and Widlocher Psychomotor Retardation Scale.

[6] = test system: patients with GAD
[7] = add-on to antidepressants, mean dose 300 mg/day
[8] = add-on to antidepressant, mean doses quetiapine 430 mg/day, lithium 825 mg/day
[9] = hypothesis to be tested, compared to paroxetine
[10] = hypothesis to be tested, vs placebo

For `OCCOCCN1CCN(C2=Nc3ccccc3Sc3ccccc32)CC1` [quetiapine, 11-[4-[2-(2-hydroxyethoxy)ethyl]-1-piperazinyl]-dibenzo[b,f][1,4]thiazepine], the serious adverse events ([1]; in vivo) was “no serious adverse events were reported”, the “vital signs or laboratory assessments” value ([1]; in vivo) was “no clinically significant changes” and the “patients who withdrew due to adverse events” value ([1]; of 50 patients eligible for inclusion) was “seven”. For the same compound, the “patients who withdrew because of sedation” value ([1]; of the patients withdrawn for adverse events) was “five”, the “lack of response drop-outs” value ([2]; 50% drop-out rate in the CBT+placebo arm) was “no lack of response drop-outs” and the “all primary efficacy measures (MADRS, HAM-D)” value ([2]; CBT 12 weekly sessions, quetiapine up to 200 mg twice a day, no significant reductions with CBT+placebo) was “significantly reduced”. For the same compound, the “most common side effect” value ([2]; in vivo) was “Somnolence”, the serious adverse events ([2]; in vivo) was “No serious adverse events were observed” and the “study survivability (at least 4 or more CBT sessions prior to withdrawal)” value ([2]; in vivo) was “increased study survivability”. The tolerability ([2]; in vivo) was “generally well-tolerated”, the “mean CGI-S score after 6 months” value ([3]; add-on to antidepressants) was “about 5” and the “mean CGI-S score at baseline” value ([3]; add-on to antidepressants) was “about 6”. For the same compound, the “mean HAM-D score after 6 months” value [3, 7] was “about 15”, the “mean HAM-D score at baseline” value [3, 7] was “about 27” and the “discontinuation of the study” value ([3]; in vivo) was “No patients discontinued the study”. The side effects reported ([3]; the only side effects reported) was “Sedation and drowsiness”, the “Adverse events of nausea or vomiting” value ([4]; compared to escitalopram) was “lower levels of nausea and” and the “Incidence of withdrawals due to adverse events” value ([4]; compared to escitalopram) was “Quetiapine has similar”. The “Sexual dysfunction: change from randomization in CSFQ total score at Day 57” value (shortened to “Sexual dysfunction: change”) ([4]; compared to escitalopram) was “lower levels of sexual”, the “Somnolence: severity of AEs, time of first instance, withdrawals due to AE of somnolence” value ([4]; compared to placebo) was “generally mild, occurs early in” and the “Change from randomization in HAM-A total score, HAM-A psychic cluster, HAM-A somatic cluster and CGI-S score at Day 4” value ([4]; compared to placebo, Day 4) was “anti-anxiety effect by Day 4”. For the same compound, the “Change from randomization in MADRS total score at Day 57” value ([4]; depressive symptoms in GAD, vs placebo) was “Quetiapine is more effective”, the “Adverse events related to discontinuation; change in Discontinuation-Emergent Signs and Symptoms total score at Day 64 and Day 71” value ([4]; discontinuation symptoms) was “Quetiapine does not have” and the “Change from normal to Clinically Important in Physical Examinations; Laboratory values; Vital signs; ECGs” value ([4]; once daily up to 300 mg/day) was 300 mg/day is safe and well. The “Change from randomization in Q-les-Q Item 15 (Satisfaction with medication) at Day 57” value ([4]; patient satisfaction, vs placebo) was “Quetiapine is more effective”, the “Change from randomization in Q-les-Q total score and Q-les-Q Item 16 (Overall life satisfaction) at Day 57” value ([4]; quality of life, vs placebo) was “Quetiapine is more effective” and the “HAM-A Response (decrease from randomization total score of = 50%) at Day 4” value ([4]; response rate vs placebo, Day 4) was “Quetiapine has a greater”. For the same compound, the “HAM-A Response (decrease from randomization total score of = 50%) at Day 57” value ([4]; response rate vs placebo, Day 57) was “Quetiapine has a greater”, the “Adverse events of nausea or vomiting” value ([4]; vs placebo) was “placebo levels of nausea and” and the “Adverse events related to EPS (including akathisia); change in SAS and BARS scores at Day 57” value ([4]; vs placebo) was “placebo levels of EPS”. For the same compound, the “HAM-A Remission (HAM-A total score = 7) at Day 57” value ([4]; vs placebo) was “Quetiapine is better than”, the “Sexual dysfunction: change” value ([4]; vs placebo) was “placebo levels of sexual” and the “Change from randomization in CGI-S score, CGI-I (much or very much improved), HAM-A psychic and somatic clusters at Day 57” value ([4]; vs placebo, across anxiety symptoms) was “Quetiapine is more effective”. The “Widlocher Psychomotor Retardation Scale mean baseline score” value ([5]; add-on to antidepressant) was “about 30”, the “Widlocher Psychomotor Retardation Scale mean score after treatment” value ([5]; add-on to antidepressant) was “about 7” and the “mean MADRS score after Day 7 up to Day 56 (end value)” value ([5]; add-on to antidepressant) was “about 8”. The “mean MADRS score, start value 'After Day 7'” value ([5]; add-on to antidepressant) was “about 38”, the “mean HAM-D score at Day 56” value [5, 8] was “about 5” and the “mean HAM-D score, start value of 'From Day 7 to 56'” value [5, 8] was “about 26”. For the same compound, the “patients in remission (HAM-D)” value ([5]; after 56 days) was “about 80%”, the “patients who responded (MADRS)” value ([5]; after 56 days) was “Eighty” and the “patients who responded to treatment (HAM-D)” value ([5]; after 56 days) was “about 80%”. For the same compound, the “patients who achieved remission (MADRS)” value ([5]; at 56 days) was “Eighty”, the “SAS scale scores versus baseline” value ([5]; in vivo) was “decreased scores from baseline” and the “Change from randomization in the Hamilton Anxiety Scale (HAM-A) total score at Day 57” value ([6]; claim to be addressed, primary outcome, vs placebo) was “more effective”. For the same compound, the “Adverse events of nausea or vomiting” value [6, 9] was “lower levels of nausea and”, the “Incidence of withdrawals due to adverse events” value [6, 9] was “Quetiapine has similar” and the “Sexual dysfunction: change” value [6, 9] was “lower levels of sexual”. The “Somnolence: severity of AEs, time of first instance, withdrawals due to AE of somnolence” value ([6]; hypothesis to be tested, compared to placebo) was “generally mild, occurs early in”, the “Change from randomization in HAM-A total score, HAM-A psychic cluster, HAM-A somatic cluster and CGI-S score at Day 4” value ([6]; hypothesis to be tested, compared to placebo, Day 4) was “anti-anxiety effect by Day 4” and the “Change from randomization in MADRS total score at Day 57” value ([6]; hypothesis to be tested, depressive symptoms in GAD, vs placebo) was “Quetiapine is more effective”. For the same compound, the “Adverse events related to discontinuation; change in Discontinuation-Emergent Signs and Symptoms total score at Day 64 and Day 71” value ([6]; hypothesis to be tested, discontinuation symptoms) was “Quetiapine does not have”, the “Change from normal to Clinically Important in Physical Examinations; Laboratory values; Vital signs; ECGs” value ([6]; hypothesis to be tested, once daily up to 150 mg/day) was 150 mg/day is safe and well and the “Change from randomization in Q-les-Q Item 15 (Satisfaction with medication) at Day 57” value ([6]; hypothesis to be tested, patient satisfaction, vs placebo) was “Quetiapine is more effective”. The “Change from randomization in Q-les-Q total score and Q-les-Q Item 16 (Overall life satisfaction) at Day 57” value ([6]; hypothesis to be tested, quality of life, vs placebo) was “Quetiapine is more effective”, the “HAM-A Response (decrease from randomization total score of ≧50%) at Day 4” value ([6]; hypothesis to be tested, response rate vs placebo, Day 4) was “Quetiapine has a greater” and the “HAM-A Response (decrease from randomization total score of ≧50%) at Day 57” value ([6]; hypothesis to be tested, response rate vs placebo, Day 57) was “Quetiapine has a greater”. For the same compound, the “Change from randomization in PSQI score and MADRS sleep disturbance factor (Item 4) at Day 57” value ([6]; hypothesis to be tested, sleep quality, vs placebo) was “Quetiapine is superior to”, the “Change from randomization in HAM-A total score, CGI Global Improvement, HAM-A psychic and somatic clusters at Day 57” value ([6]; hypothesis to be tested, versus paroxetine) was “Quetiapine is at least as” and the “Adverse events of nausea or vomiting” value [6, 10] was “placebo levels of nausea and”. The “Adverse events related to EPS (including akathisia); change in SAS and BARS scores at Day 57” value [6, 10] was “placebo levels of EPS”, the “HAM-A Remission (HAM-A total score ≦7) at Day 57” value [6, 10] was “Quetiapine is better than” and the “Sexual dysfunction: change” value [6, 10] was “placebo levels of sexual”. The “Change from randomization in CGI-S score, CGI-I (much or very much improved), HAM-A psychic and somatic clusters at Day 57” value ([6]; hypothesis to be tested, vs placebo, across anxiety symptoms) was “Quetiapine is more effective”.

Reference: patent US20110319384A1, “Pharmaceutical Compositions” (priority 2005, published 2011)
